# Assay results: US8840915B2, “Pharmaceutical compositions for sustained release delivery of peptides” (Foresec Pharmaceuticals, LLC, priority 2006, dated 2014)
# Columns and labels:
# [1] = Stability of the polymer in liquid polymeric formulations (molecular weight by GPC, room temperature); format: physicochemical; conditions: formulation containing the peptide; for Stability of the polymer in liquid polymeric formulations: polymer molecular weight by GPC, room temperature
# Description: (§1) Poly(DL-lactide-co-glycolide) (PLGA) of an 85/15 ratio of lactide to glycolide having a polydispersity of 1.5 (DLPLG85/15, IV: 0.28) was dissolved in N-methyl-2-pyrrolidone (NMP) to obtain a 50% solution by weight.
# (§2) An aliquot from each formulation was taken for in vitro release in phosphate buffer at pH 7.4 containing 0.1% sodium azide at 37° C. and the remaining formulation was used to monitor the stability of the peptides and the polymer at room temperature over time. The time points are 0.125, 1, 2, 5, 7, 14, 21, and 28 days. Purity of the peptides in the sample was determined by HPLC. Molecular weight of the polymer was determined by gel permeation chromatography (GPC) using polystyrene standards with known molecular weights.
# (§3) According to prior art, the presence of a nucleophilic group on a peptide can lead to an interaction between the peptide and the biodegradable polymer of a composition. The nucleophilic groups on the peptide can react with the biodegradable polymer to form acylated products and can catalyze the degradation of the biodegradable polymer. It is well known that when octreotide and poly(DL-lactide-co-glycolide) are combined, especially in an organic solution such as NMP, the octreotide will be acylated and the polymer will be degraded rapidly. The N-terminal conjugation of the octreotide in the present invention contains one primary amine, one secondary amine and one C-terminal carboxylic acid group and is expected to interact and/or react with the polymer similarly to the octreotide itself. […] However, the covalently conjugated octreotide was stable even after 56 days under the same condition. […] After 21 days, the molecular weight of the polymer was reduced by 50%. However, for the polymer in the formulation containing covalently conjugated octreotide, more than 90% of the original molecular weight was retained.
# [2] = Stability of the peptides in liquid polymeric formulations (purity by HPLC, room temperature); format: physicochemical; conditions: for Stability of the peptides in liquid polymeric formulations: 6% drug load in 50% DLPLG85/15 in NMP, room temperature, purity by HPLC
# Description: as §1, §2, §3
# [3] = In vitro release of octreotide and Pal-PEG-BA-OCT from formulation in DLPLG85/15 solution in NMP; degradation/acylation by HPLC; format: physicochemical
# Description: as §1, §2
# And more than 50% of the octreotide detected in the releasing medium was degraded or acylated after 28 days. After 28 days, the polymer matrix was dissolved in acetonitrile, and the polymer was precipitated using water. The octreotide was analyzed by HPLC. […] It would be highly advantageous to prevent such interaction between the peptide and the polymer.
# [4] = within 24 hours; 50/50 poly(DL-lactide-co-glycolide) having a carboxy terminal group, solution in NMP; cited from earlier work
# [5] = In vitro release of ghrelin and deacylated ghrelin from formulations in RG503H solution in mPEG350; format: physicochemical; conditions: about 6% in 40% PLGA RG503H in mPEG350; PBS pH 7.4, 37° C.; two week period; HPLC
# Description: 40% PLGA RG503H was prepared by appropriately dissolving the polymer in mPEG350. Then ghrelin (Human, Rat 1-5) and deacylated ghrelin (Des-n-Octanoyl-[Ser]^3-ghrelin (Human, Rat 1-5)) were mixed with the polymer solution at about 6% respectively. The formulations were thoroughly mixed to obtain uniform formulations.
# The formulation suspensions (about 100 mg) were injected into in 3 mL phosphate buffer saline solution at pH 7.4 with 0.1% sodium azide at 37° C. The receiving fluid was replaced at selected time points with fresh buffer solution, and the removed buffer solution was diluted appropriately with PB at pH 7.4 and was analyzed for drug concentration by HPLC using corresponding standard curves.
# [6] = in vivo; cited from earlier work
# [7] = In vitro release of lysozyme and palmitoylated lysozyme from injectable polymer solution (RG503H in mPEG350); format: physicochemical; conditions: about 7% in 40% PLGA RG503H in mPEG350; PBS pH 7.4, 37° C.; UV 280 nm
# Description: 40% PLGA RG503H was prepared by appropriately dissolving the polymer in mPEG350. Then Palmitoyl-Lysozyme and lysozyme were mixed with the polymer solution at about 7% respectively. The formulations were thoroughly mixed to obtain uniform formulations.
# In vitro release of lysozyme and palmitoylated lysozyme from injectable polymer solution. The formulation suspensions (about 100 mg) were injected into in 3 mL phosphate buffer saline solution at pH 7.4 with 0.1% sodium azide at 37° C. The receiving fluid was replaced at selected time points with fresh buffer solution, and the removed buffer solution was diluted appropriately with PB at pH 7.4 and analyzed for drug concentration by UV spectrophotometer at 280 nm against standard curves.
compound,measurement,setting,value
"C[C@@H](O)[C@@H]1NC(=O)[C@H](CCCCN)NC(=O)[C@@H](Cc2c[nH]c3ccccc23)NC(=O)[C@H](Cc2ccccc2)NC(=O)[C@@H](NC(=O)[C@H](N)Cc2ccccc2)CSSC[C@@H](C(=O)N[C@H](CO)[C@@H](C)O)NC1=O [Octreotide, octreotide]",Stability of the polymer in liquid polymeric formulations,[1]; Day 0,100
same,Stability of the polymer in liquid polymeric formulations,[1]; Day 0.1,95.8
same,Stability of the polymer in liquid polymeric formulations,[1]; Day 1,75.3
same,Stability of the polymer in liquid polymeric formulations,[1]; Day 2,66.1
same,Stability of the polymer in liquid polymeric formulations,[1]; Day 3,65.3
same,Stability of the polymer in liquid polymeric formulations,[1]; Day 7,59.0
same,Stability of the polymer in liquid polymeric formulations,[1]; Day 14,57.1
same,Stability of the polymer in liquid polymeric formulations,[1]; Day 21,51.3
same,molecular weight of the polymer reduced by,[1]; after 21 days at room temperature,50%
same,Stability of the peptides in liquid polymeric formulations,[2]; Day 7,2.3
same,Stability of the peptides in liquid polymeric formulations,[2]; Day 14,0.6
same,Stability of the peptides in liquid polymeric formulations,[2]; Day 21,0.3
same,Stability of the peptides in liquid polymeric formulations,[2]; Day 56,0.0
same,reaction of the peptide with the polymer,"[2]; after 7 days at room temperature, poly(DL-lactide-co-glycolide) solution in NMP",almost completely reacted
same,peptide acylated,"[2]; within 24 hours at room temperature, poly(DL-lactide-co-glycolide) solution in NMP",more than 80%
same,peptide remaining in the polymer matrix acylated,"[3]; after 28 days of in vitro release, matrix dissolved in acetonitrile, HPLC",more than 50%
same,peptide detected in the releasing medium degraded or acylated,"[3]; after 28 days, phosphate buffer pH 7.4, 0.1% sodium azide, 37° C.",more than 50%
same,peptide detected in the releasing medium degraded or reacted with the polymer,"[3]; within 3 hours, phosphate buffer pH 7.4, 0.1% sodium azide, 37° C.",about 30%
C[C@@H](O)[C@@H]1NC(=O)[C@H](CCCCN)NC(=O)[C@@H](Cc2c[nH]c3ccccc23)NC(=O)[C@H](Cc2ccccc2)NC(=O)[C@@H](NC(=O)[C@H](N)Cc2ccccc2)CSSC[C@@H](C(=O)N[C@H](CO)[C@@H](C)O)NC1=O [octreotide acetate],octreotide acylated and/or degraded,[4],more than 80%
"Des-n-Octanoyl-[Ser]^3-ghrelin (Human, Rat 1-5) [deacylated ghrelin]",in vitro release rate,[5],much faster release
Detemir,circulation half-life,[6],10.2 ± 1.2 h
"ghrelin (Human, Rat 1-5)",in vitro release rate,[5],much slower release rate
"native lysozyme: Lysozyme (Mw 14,500), unmodified",initial in vitro release,[7],significant release initially
